# From patent US8592466B2, “Methods for treating conditions caused by higher-than-normal dopaminergic activity in basal ganglia” (Neuropill, Inc., priority 2008, dated 2013)
# Test: Phase I cocaine interaction study: 12-lead ECG
# Format: in vivo, humans
# Method: Changes in ECG readings during saline infusion as compared to those taken during cocaine infusions were also reported.
# A 12 Lead ECG was scheduled at Pre-Intake Screening, Intake Screening, Discharge and follow-up all of which are non-infusion days. […] All subjects completed the non-infusion ECG's at baseline and discharge.
# To evaluate subjects' responses to cocaine infusion, measurements after cocaine 40 mg infusion were compared to those prior to any infusion (reading at −10 min). Readings at 4 min and 40 min were used when the first infusion was cocaine while readings at 64 min and 100 min were used when the second infusion was cocaine. […] The RPR 102681 group also had decreased RR and QT duration from baseline at 40 min post cocaine infusion on day 15. In the placebo group, some scattered significant decreases from baseline were observed including PR duration at 4 min post cocaine on day 8 and RR duration at 4 min post cocaine on day 8 and 15. […] However, the statistical significance might not hold if multiplicity adjustment was performed in these multiple comparisons.
smiles,measurement,setting,value
"CC(C(=O)O)c1cccc(NC(=O)NCC(=O)N2C(C(=O)OC(C)(C)C)CSC2c2ccccc2F)c1 [RPR 102681, (2S)-2-{3-[3-({[(2R,4R)-4-tert-Butoxycarbonyl-2-(2-fluorophenyl)]-3-thiazolidinyl}carbonylmethyl)ureido]phenyl}propionic acid]",PR/RR/QT duration following cocaine infusion vs pre infusion,cocaine 40 mg infusion,seemed to decrease
same,clinical significance of PR/RR/QT changes,cocaine 40 mg infusion,not clinically significant
same,pre infusion RR and QT duration vs intake screening,"days 8, 15, 22, 29",No significant difference
same,pre infusion PR duration vs intake screening,"days 8, 15, 22, 29, Signed Rank Test",significantly longer
same,"ECG mean values for VR, PR, QT, RR and QRS",non-infusion days,within normal range
